{
  "source": "the NIST ThermoML archive (doi:10.1016/j.fluid.2010.04.018)",
  "experiment": "xn = mol fraction of the nth substance listed",
  "details": "Liquid, Vibrating tube method",
  "note": "Numbers after ± are expanded uncertainties.",
  "data": [
    {"smiles": "C1CCOC1", "note": "[tetrahydrofuran] + O=C=O", "values": [
      {"measurement": "mass density", "setting": "298.15 K, x2 = 0.388", "value": "906.5 ± 0.2", "unit": "kg/m3"},
      {"measurement": "mass density", "setting": "298.15 K, x2 = 0.47", "value": "910.1 ± 0.2", "unit": "kg/m3"},
      {"measurement": "mass density", "setting": "298.15 K, x2 = 0.588", "value": "912.1 ± 0.2", "unit": "kg/m3"},
      {"measurement": "mass density", "setting": "298.15 K, x2 = 0.703", "value": "906.9 ± 0.3", "unit": "kg/m3"},
      {"measurement": "mass density", "setting": "298.15 K, x2 = 0.828", "value": "883.3 ± 0.3", "unit": "kg/m3"},
      {"measurement": "mass density", "setting": "298.15 K, x2 = 0.941", "value": "819.3 ± 1.5", "unit": "kg/m3"},
      {"measurement": "mass density", "setting": "298.15 K, x2 = 0.983", "value": "763.3 ± 0.5", "unit": "kg/m3"},
      {"measurement": "mass density", "setting": "313.15 K, x2 = 0.301", "value": "879.8 ± 0.2", "unit": "kg/m3"},
      {"measurement": "mass density", "setting": "313.15 K, x2 = 0.428", "value": "883.6 ± 0.2", "unit": "kg/m3"},
      {"measurement": "mass density", "setting": "313.15 K, x2 = 0.542", "value": "883 ± 0.2", "unit": "kg/m3"},
      {"measurement": "mass density", "setting": "313.15 K, x2 = 0.665", "value": "873.1 ± 0.4", "unit": "kg/m3"},
      {"measurement": "mass density", "setting": "313.15 K, x2 = 0.788", "value": "842.6 ± 0.8", "unit": "kg/m3"},
      {"measurement": "mass density", "setting": "313.15 K, x2 = 0.881", "value": "787.7 ± 1.6", "unit": "kg/m3"},
      {"measurement": "mass density", "setting": "313.15 K, x2 = 0.921", "value": "737.7 ± 3", "unit": "kg/m3"},
      {"measurement": "mass density", "setting": "313.15 K, x2 = 0.938", "value": "699.9 ± 4.5", "unit": "kg/m3"}
    ]}
  ]
}
